Measured values taken from patent publication US20220274973A1, “Methods And Compositions For Treating Sickle Cell Disease With A Ferroportin Inhibitor (VIT-2763)” (Vifor (International) AG, priority 2019, published 2022).

Assay: Rodent PK studies, oral dosing
Type: in vivo

systemic availability: systemically available
SMILES: O=C(NCc1ncccc1F)c1coc(CCNCCc2nc3ccccc3[nH]2)n1 [Compound 127]
